# Source: patent US12630528B2, “Amino aryl derivative useful as diacylglycerol acyltransferase 2 inhibitor and use thereof” (LG CHEM, LTD., priority 2019, dated 2026)
# Target: T1, human DGAT2 (Homo sapiens, UniProt Q96PD7)
# T1 construct: FLAG (DYKDDDDK); made in house; host or cells: Sf-21 insect cells (BacPAK baculovirus system); membrane fraction used
# T1 sequence (Q96PD7 1-388): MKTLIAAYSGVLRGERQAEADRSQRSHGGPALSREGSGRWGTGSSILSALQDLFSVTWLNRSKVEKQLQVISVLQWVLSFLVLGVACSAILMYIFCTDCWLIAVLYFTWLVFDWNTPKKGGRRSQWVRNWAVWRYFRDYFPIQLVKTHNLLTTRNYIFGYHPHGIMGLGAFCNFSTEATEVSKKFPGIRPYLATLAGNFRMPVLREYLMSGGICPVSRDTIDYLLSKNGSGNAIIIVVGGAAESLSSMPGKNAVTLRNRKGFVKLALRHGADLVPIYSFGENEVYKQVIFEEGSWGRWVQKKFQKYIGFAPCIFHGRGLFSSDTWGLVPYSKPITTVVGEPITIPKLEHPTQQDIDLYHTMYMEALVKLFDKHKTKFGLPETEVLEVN
# Experiment: DGAT2 enzyme activity inhibition, Phospholipid FlashPlate SPA
# Format: biochemical
# Conditions: recombinant human DGAT2 membrane protein from Sf-21 cells; inhibition of [14C]-TG production; 37° C.
# Outline: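 Sf-21 membranes expressing recombinant human DGAT2 (2 μg) preincubated with compound (3 nM–10 μM, 1% DMSO) and 50 μM 1,2 sn-oleoyl glycerol, 20 min at 37 °C, then 1 μM [14C]oleoyl-CoA for 15 min. [14C]-TG counted by SPA; inhibition as % of untreated.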
row,IC50,SMILES
1,1.1 µM,"CCOc1ccccc1O[C@@H]1CCCN(c2cncc(Nc3nccc(-c4cccc(OC(C)(C)C(=O)O)c4)n3)n2)C1 [Example 158, (R)-2-(3-(2-((6-(3-(2-ethoxyphenoxy)piperidin-1-yl)pyrazin-2-yl)amino)pyrimidin-4-yl)phenoxy)-2-methylpropanoic Acid]"
2,> 10 µM,"CCOc1ccccc1O[C@@H]1CCCN(c2cncc(Nc3ccc(C(=O)O)cn3)n2)C1 [Example 32, (R)-6-((6-(3-(2-ethoxyphenoxy)piperidin-1-yl)pyrazin-2-yl)amino)nicotinic Acid]"
3,> 10 µM,"CCOc1ccccc1O[C@@H]1CCCN(c2cncc(Nc3nc(-c4ccccc4)cs3)n2)C1 [Example 4, (R)—N-(6-(3-(2-ethoxyphenoxy)piperidin-1-yl)pyrazin-2-yl)-4-phenylthiazol-2-amine]"
4,1.8 µM,"CCOc1ccccc1O[C@@H]1CCCN(c2cncc(Nc3nccc(N4CCC(CC(=O)O)CC4)n3)n2)C1 [Example 125, (R)-2-(1-(2-((6-(3-(2-ethoxyphenoxy)piperidin-1-yl)pyrazin-2-yl)amino)pyrimidin-4-yl)piperidin-4-yl)acetic Acid]"
5,> 10 µM,"CCOc1ccccc1O[C@@H]1CCCN(c2ncc(C(F)(F)F)c(Nc3cccc(-c4cccc(CC(C)(C)C(=O)O)c4)n3)n2)C1 [Example 70, (R)-3-(3-(6-((2-(3-(2-ethoxyphenoxy)piperidin-1-yl)-5-(trifluoromethyl)pyrimidin-4-yl)amino)pyridin-2-yl)phenyl)-2,2-dimethylpropanoic Acid]"
6,0.26 µM,"CCOc1ccccc1O[C@@H]1CCCN(c2cncc(Nc3ccnc(-c4ccc(C(C)(C)C(=O)O)cc4)n3)n2)C1 [Example 169, (R)-2-(4-(4-((6-(3-(2-ethoxyphenoxy)piperidin-1-yl)pyrazin-2-yl)amino)pyrimidin-2-yl)phenyl)-2-methylpropanoic Acid]"
7,0.41 µM,CCOc1cccnc1O[C@@H]1CCCN(c2ccnc(Nc3nccc(C(C)(C)C(=O)O)n3)n2)C1 [Example 116]
8,3.5 µM,"CCOc1ccccc1O[C@@H]1CCCN(c2nccc(Nc3cccc(-c4cccc(CC(C)(C)C(=O)O)c4)n3)n2)C1 [Example 66, (R)-3-(3-(6-((2-(3-(2-ethoxyphenoxy)piperidin-1-yl)pyrimidin-4-yl)amino)pyridin-2-yl)phenyl)-2,2-dimethylpropanoic Acid]"
9,0.2 µM,"CCOc1cccnc1O[C@@H]1CCCN(c2cncc(Nc3cccc(-c4cccc(OC(C)(C)C(=O)O)c4)n3)n2)C1 [Example 81, (R)-2-(3-(6-((6-(3-((3-ethoxypyridin-2-yl)oxy)piperidin-1-yl)pyrazin-2-yl)amino)pyridin-2-yl)phenoxy)-2-methylpropanoic Acid]"
10,2.4 µM,"CCOc1ccccc1O[C@@H]1CCCN(c2cncc(Nc3cccc(-c4ccc(CC(C)(C)C(=O)O)cc4)c3)n2)C1 [Example 30, (R)-3-(3′-((6-(3-(2-ethoxyphenoxy)piperidin-1-yl)pyrazin-2-yl)amino)-[1,1′-biphenyl]-4-yl)-2,2-dimethylpropanoic Acid]"
11,> 10 µM,"CCOc1ccccc1O[C@@H]1CCCN(c2cncc(Nc3ccc(C(C)(C)C(=O)O)cc3)n2)C1 [Example 27, (R)-2-(4-((6-(3-(2-ethoxyphenoxy)piperidin-1-yl)pyrazin-2-yl)amino)phenyl)-2-methylpropanoic Acid]"
12,0.42 µM,"CCOc1ccccc1O[C@@H]1CCCN(c2cncc(Nc3ccnc(-c4cccc(C(C)(C)C(=O)O)c4)n3)n2)C1 [Example 168, (R)-2-(3-(4-((6-(3-(2-ethoxyphenoxy)piperidin-1-yl)pyrazin-2-yl)amino)pyrimidin-2-yl)phenyl)-2-methylpropanoic Acid]"
13,0.3 µM,"CCOc1cccnc1O[C@@H]1CCCN(c2cncc(Nc3ccc(F)c(-c4cccc(CC(C)(C)C(=O)O)c4)n3)n2)C1 [Example 103, (R)-3-(3-(6-((6-(3-((3-ethoxypyridin-2-yl)oxy)piperidin-1-yl)pyrazin-2-yl)amino)-3-fluoropyridin-2-yl)phenyl)-2,2-dimethylpropanoic Acid]"
